From ChEMBL document CHEMBL5331131, “Discovery of Acyl-Indole Derivatives as Pan-Serotype Dengue Virus NS4B Inhibitors” (J Med Chem, 2023)
≈ marks a conversion by molar mass, not a printed value.

Experiments:
[1] = tested on: dengue virus type 1; assay: Antiviral activity against DENV-1 TC974#666 infected in african green monkey Vero cells incubated for 24 hrs measured after 3 days post infection; format: functional, organism-based; details: TC974#666, Vero
[2] = Cytotoxicity against african green monkey Vero cells by ATPlite cell viability luminescence assay; format: toxicity, cell-based; details: chlorocebus sabaeus
[3] = tested on: dengue virus type 4; assay: Antiviral activity against DENV-4 H241 infected in african green monkey Vero cells incubated for 24 hrs measured after 3 days post infection; format: functional, organism-based; details: Dengue virus, H241, Vero
[4] = Microsomal stability in human liver microsomes assessed as intrinsic clearance preincubated for 5 mins followed by NADPH addition measured upto 60 mins by LC-MS/MS analysis; format: ADME, Microsome; details: time < 65 min, read-out: CLH
[5] = Microsomal stability in rat liver microsomes assessed as intrinsic clearance preincubated for 5 mins followed by NADPH addition measured upto 60 mins by LC-MS/MS analysis; format: ADME, Microsome; details: time < 65 min, read-out: CLH
[6] = tested on: dengue virus type 2; assay: Antiviral activity against DENV-2 16681 expressing eGFP infected in african green monkey Vero cells incubated with cells for 24 hrs followed by viral infection measured after 3 days by laser microscopic analysis; format: functional, organism-based
[7] = tested on: dengue virus type 3; assay: Antiviral activity against DENV-3 H87 infected in african green monkey Vero cells incubated for 24 hrs measured after 3 days post infection; format: functional, organism-based
[8] = Clearance in CD-1 mouse at 2.5 mg/kg, iv measured for 0.12 to 24 hrs by LC-MS/MS analysis; format: ADME, organism-based; details: in vivo, time 0.12-24 hrs
[9] = Microsomal stability in mouse liver microsomes assessed as intrinsic clearance preincubated for 5 mins followed by NADPH addition measured upto 60 mins by LC-MS/MS analysis; format: ADME, Microsome; details: time < 65 min, read-out: CLH
[10] = Clearance in Sprague-Dawley rat at 2.5 mg/kg, iv measured upto 24 hrs by LC-MS/MS analysis; format: ADME, organism-based; details: in vivo
[11] = tested on: dengue virus type 2; assay: Antiviral activity against DENV-2 16681 infected in african green monkey Vero cells incubated for 24 hrs measured after 3 days post infection; format: functional, organism-based; details: Dengue virus, 16681, Vero
[12] = Cmax in Sprague-Dawley rat at 10 mg/kg, po measured upto 24 to 48 hrs by LC-MS/MS analysis; format: ADME, organism-based; set-up: time upper 48 hrs, dose 10 mg/kg, time lower 24 hrs, route po; details: in vivo
[13] = Volume of distribution at steady state in Sprague-Dawley rat at 2.5 mg/kg, iv measured upto 24 hrs by LC-MS/MS analysis; format: ADME, organism-based; details: in vivo, read-out: Vdss
[14] = Half life in Sprague-Dawley rat at 2.5 mg/kg, iv measured by LC-MS/MS analysis; format: ADME, organism-based; details: in vivo
[15] = Oral bioavailability in Sprague-Dawley rat at 10 mg/kg measured upto 24 to 48 hrs by LC-MS/MS analysis; format: ADME, organism-based; details: in vivo, time 24-48 hrs
[16] = AUC last in Sprague-Dawley rat at 10 mg/kg, po measured upto 24 to 48 hrs by LC-MS/MS analysis; format: ADME, organism-based; set-up: time upper 48 hrs, dose 10 mg/kg, time lower 24 hrs, route po; details: in vivo
[17] = Kinetic solubility of the compound in aqueous buffer at pH 2 measured after 4 hrs by UPLC/UV analysis; format: physicochemical; details: read-out: Kinetic_solubility
[18] = Kinetic solubility of the compound in aqueous buffer at pH 7.4 measured after 4 hrs by UPLC/UV analysis; format: physicochemical; details: read-out: Kinetic_solubility
[19] = Kinetic solubility of the compound in aqueous buffer at pH 4 measured after 4 hrs by UPLC/UV analysis; format: physicochemical; details: read-out: Kinetic_solubility
[20] = tested on: dengue virus type 2; assay: In vivo antiviral activity against DENV-2/RL infected in AG129 mouse assessed as viral load reduction administered at 3 to 30 mg/kg, po bid for 3 days; format: functional, organism-based; details: dose 3-30 mg/kg, time 3.0 day

microsomal CLint [4] | microsomal CLint [5] | EC50 ([6]; Dengue virus, 16681, Vero) | microsomal CLint [9] | SMILES | CC50 [2] | also measured
10 µL/min/mg | 13 µL/min/mg | 5 nM | 10 µL/min/mg | COc1cc(NC(C(=O)c2c[nH]c3c(F)cc(C)cc23)c2ccc(F)cc2OC)cc(OCCO)c1 (single isomer, unassigned; (+)) | 5500 nM | 
< 8 µL/min/mg | < 8 µL/min/mg | 2 nM | < 8 µL/min/mg | COc1cc(NC(C(=O)c2c[nH]c3c(C)c(F)ccc23)c2ccc(F)cc2OC)cc(OCCO)c1 (single isomer, unassigned; (+)) | 5300 nM | Cmax [12]: 573 ng/mL; solubility kinetic at 4 h [17]: 34 µM (≈ 16.9 µg/mL); solubility kinetic at 4 h [18]: 2 µM (≈ 0.993 µg/mL); Vd [13]: 8.5 L/kg; half-life [14]: 6.5 h; solubility kinetic at 4 h [19]: 3 µM (≈ 1.49 µg/mL); bioavailability [15]: 88%; clearance [10]: 16.4 mL/min/kg; AUC(0-t) [16]: 8290 ng·h/mL
< 8 µL/min/mg | 30 µL/min/mg | 4 nM | 26 µL/min/mg | COc1cc(NC(C(=O)c2c[nH]c3cc(F)ccc23)c2ccc(F)cc2OC)cc(OCCO)c1 (centres undefined) | 8400 nM | Cmax [12]: 135 ng/mL; solubility kinetic at 4 h [17]: 69 µM (≈ 33.3 µg/mL); solubility kinetic at 4 h [18]: 18 µM (≈ 8.68 µg/mL); EC50 [3]: 870 nM; Vd [13]: 7.6 L/kg; half-life [14]: 3.2 h; solubility kinetic at 4 h [19]: 18 µM (≈ 8.68 µg/mL); bioavailability [15]: 26%; clearance [10]: 39.2 mL/min/kg; EC50 [11]: 9 nM; AUC(0-t) [16]: 1110 ng·h/mL
< 8 µL/min/mg | < 8 µL/min/mg | 5 nM | < 8 µL/min/mg | COc1cc(NC(C(=O)c2c[nH]c3cc(OC)c(F)cc23)c2ccc(F)cc2OC)cc(OCCO)c1 (single isomer, unassigned; (+)) | > 8600 nM | 
< 8 µL/min/mg | 8 µL/min/mg | 3 nM | 8 µL/min/mg | COc1cc(NC(C(=O)c2c[nH]c3c(F)c(F)ccc23)c2ccc(F)cc2OC)cc(OCCO)c1 (centres undefined) | 6600 nM | 
< 8 µL/min/mg | < 8 µL/min/mg | 1 nM | < 8 µL/min/mg | COc1cc(NC(C(=O)c2c[nH]c3c(C)c(Cl)ccc23)c2ccc(F)cc2OC)cc(OCCO)c1 (single isomer, unassigned; (+)) | 4100 nM | Cmax [12]: 294 ng/mL; solubility kinetic at 4 h [17]: 5 µM (≈ 2.56 µg/mL); solubility kinetic at 4 h [18]: < 0.1 µM; Vd [13]: 6.5 L/kg; half-life [14]: 7 h; solubility kinetic at 4 h [19]: < 0.1 µM; bioavailability [15]: 54%; clearance [10]: 10.7 mL/min/kg; AUC(0-t) [16]: 7600 ng·h/mL
 |  | 9 nM |  | COc1cc(NC(C(=O)c2c[nH]c3cc(F)ccc23)c2ccc(F)cc2F)cc(OCCO)c1 (centres undefined) | 13000 nM | 
< 8 µL/min/mg | < 8 µL/min/mg | 3 nM | < 8 µL/min/mg | COc1cc(NC(C(=O)c2c[nH]c3cc(OC)c(C)cc23)c2ccc(F)cc2OC)cc(OCCO)c1 (single isomer, unassigned; (+)) | 7400 nM | Cmax [12]: 350 ng/mL; solubility kinetic at 4 h [17]: 65 µM (≈ 33.1 µg/mL); solubility kinetic at 4 h [18]: 5 µM (≈ 2.54 µg/mL); Vd [13]: 6.5 L/kg; half-life [14]: 5.7 h; solubility kinetic at 4 h [19]: 5 µM (≈ 2.54 µg/mL); bioavailability [15]: 40%; clearance [10]: 13.6 mL/min/kg; AUC(0-t) [16]: 4660 ng·h/mL
< 8 µL/min/mg | 24 µL/min/mg | 2 nM | < 8 µL/min/mg | COc1cc(NC(C(=O)c2c[nH]c3cc(Cl)ccc23)c2ccc(F)cc2OC)cc(OCCO)c1 (centres undefined) | 5900 nM | 
< 8 µL/min/mg | 44 µL/min/mg | 3 nM | 10 µL/min/mg | COc1cc(NC(C(=O)c2c[nH]c3cc(F)c(F)cc23)c2ccc(F)cc2OC)cc(OCCO)c1 (single isomer, unassigned; (+)) | 6900 nM | 

The remaining lines, values behind:

SMILES | microsomal CLint [4] | microsomal CLint [5] | EC50 ([6]; Dengue virus, 16681, Vero) | microsomal CLint [9] | CC50 [2] | also measured
COc1cc(NC(C(=O)c2c[nH]c3ccccc23)c2ccccc2)cc(OCCO)c1 (centres undefined) | < 8 µL/min/mg | 37 µL/min/mg | 49 nM | 201 µL/min/mg | 21000 nM | EC50 [1]: 180 nM; EC50 [3]: 3900 nM; EC50 [7]: 1000 nM; clearance [8]: 54 mL/min/kg; clearance [10]: 34.7 mL/min/kg; EC50 [11]: 32 nM
COc1cc(NC(C(=O)c2c[nH]c3cc(F)ccc23)c2ccc(F)cc2)cc(OCCO)c1 (stereo in doubt) | < 8 µL/min/mg | < 8 µL/min/mg |  | 26 µL/min/mg | 13000 nM | EC50 [1]: 49 nM; Cmax [12]: 295 ng/mL; EC50 [3]: 870 nM; Vd [13]: 7.3 L/kg; half-life [14]: 6 h; EC50 ([6]; vero): 15 nM; EC50 [7]: 420 nM; clearance [8]: 37.1 mL/min/kg; bioavailability [15]: 40%; clearance [10]: 13.9 mL/min/kg; EC50 [11]: 12 nM; AUC(0-t) [16]: 4370 ng·h/mL
COc1cc(NC(C(=O)c2c[nH]c3cc(F)ccc23)c2ccc(C(F)(F)F)cc2OC)cc(OCCO)c1 (centres undefined) |  |  |  |  |  | EC50 [3]: 770 nM; EC50 [11]: 3 nM
COc1cc(NC(C(=O)c2c[nH]c3cc(F)ccc23)c2ccc(F)cc2)cc(OCCO)c1 (stereo in doubt; (-)-7b) |  |  |  |  |  | EC50 ([6]; vero): 93 nM
COc1cc(NC(C(=O)c2c[nH]c3ccc(F)cc23)c2ccc(F)cc2)cc(OCCO)c1 (centres undefined) | < 8 µL/min/mg | 10 µL/min/mg | 16 nM | 50 µL/min/mg | 14000 nM | 
COc1cc(NC(C(=O)c2c[nH]c3cc(F)ccc23)c2ccc(F)cc2)cc(OCCO)c1 (single isomer, unassigned; (+)) |  |  |  |  |  | EC50 ([6]; vero): 11 nM
COc1cc(NC(C(=O)c2c[nH]c3cc(F)ccc23)c2ccc(Cl)cc2OC)cc(OCCO)c1 (single isomer, unassigned; (+)) |  |  |  |  |  | Activity [20]: Dose-Dependent Effect
COc1cc(NC(C(=O)c2c[nH]c3c(Cl)c(OC)ccc23)c2ccc(F)cc2OC)cc(OCCO)c1 (centres undefined) | < 8 µL/min/mg | 37 µL/min/mg | 1 nM | 9 µL/min/mg | 8600 nM | 
COc1cc(NC(C(=O)c2c[nH]c3cc(F)ccc23)c2ccc(Cl)cc2OC)cc(OCCO)c1 (stereo in doubt; 24) |  |  |  |  |  | EC50 [3]: 360 nM; EC50 [11]: 1 nM
COc1cc(NC(C(=O)c2c[nH]c3cc(F)ccc23)c2ccc(F)cc2OCCO)cc(OCCO)c1 (centres undefined) |  |  | 41 nM |  | 14000 nM | 
COc1cc(NC(C(=O)c2c[nH]c3cc(F)ccc23)c2ccc(OC(F)(F)F)cc2OC)cc(OCCO)c1 (centres undefined) |  |  |  |  |  | EC50 [3]: 3430 nM; EC50 [11]: 22 nM
COc1cc(NC(C(=O)c2c[nH]c3cc(F)ccc23)c2ccc(F)cc2OC(F)(F)F)cc(OCCO)c1 (centres undefined) |  |  | 170 nM |  | 7800 nM | 
COc1cc(NC(C(=O)c2c[nH]c3c(C)c(OC)ccc23)c2ccc(F)cc2OC)cc(OCCO)c1 (single isomer, unassigned; (+)) | < 8 µL/min/mg | 17 µL/min/mg | 1 nM | < 8 µL/min/mg | 8900 nM | 
COc1cc(NC(C(=O)c2c[nH]c3cc(F)ccc23)c2ccc(C)cc2OC)cc(OCCO)c1 (centres undefined) |  |  |  |  |  | EC50 [3]: 960 nM; EC50 [11]: 7 nM
COc1cc(NC(C(=O)c2c[nH]c3cc(F)ccc23)c2ccc(F)cc2Cl)cc(OCCO)c1 (single isomer, unassigned; (-)) |  |  | 6 nM |  | 8200 nM | 
